Experimental data from patent publication US7807400B2, “Methods for identifying chemical modulators of Ras superfamily GTPase activity” (The University of North Carolina at Chapel Hill, priority 2004, dated 2010).
Entries after “also recorded” stand apart in the source; their conditions may differ.

What was measured:
Assay type in all cases: biochemical
[1] = biological target: Dbs-mediated activation of RhoA (Homo sapiens, UniProt P61586); test: fluorescence guanine nucleotide exchange reaction, Dbs-mediated activation of RhoA; settings: fluorescence after addition of GEF, versus DMSO vehicle control
Dbs-mediated activation of RhoA, sequence (P61586 whole entry): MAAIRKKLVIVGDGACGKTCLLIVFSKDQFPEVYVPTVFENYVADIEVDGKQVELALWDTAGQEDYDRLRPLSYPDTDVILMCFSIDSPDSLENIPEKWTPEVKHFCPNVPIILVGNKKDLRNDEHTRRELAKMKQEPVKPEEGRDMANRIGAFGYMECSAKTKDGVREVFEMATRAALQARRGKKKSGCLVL

[2] = test system: Tiam1-mediated activation of Rac1; test: fluorescence based guanine nucleotide exchange assay, Tiam1-mediated activation of Rac1
[3] = biological target: Rac1 (Homo sapiens, UniProt P63000); test: complementary radiolabeled nucleotide exchange assay on Rac1
[4] = biological target: Cdc42 (Homo sapiens, UniProt P60953); test: complementary radiolabeled nucleotide exchange assay on Cdc42
Cdc42, sequence (P60953 whole entry, species assumed): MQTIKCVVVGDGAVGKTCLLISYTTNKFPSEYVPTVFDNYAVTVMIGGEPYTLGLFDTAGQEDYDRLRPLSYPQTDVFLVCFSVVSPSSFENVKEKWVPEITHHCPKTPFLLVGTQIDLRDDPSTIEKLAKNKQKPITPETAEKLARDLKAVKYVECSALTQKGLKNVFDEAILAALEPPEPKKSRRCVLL

[5] = biological target: RhoA (Homo sapiens, UniProt P61586); test: complementary radiolabeled nucleotide exchange assay on RhoA
RhoA, sequence (P61586 whole entry, species assumed): as the sequence (P61586 whole entry) above

[6] = biological target: H-Ras (Homo sapiens, UniProt P01112); test: complementary radiolabeled nucleotide exchange assay on H-Ras
H-Ras, sequence (P01112 whole entry, species assumed): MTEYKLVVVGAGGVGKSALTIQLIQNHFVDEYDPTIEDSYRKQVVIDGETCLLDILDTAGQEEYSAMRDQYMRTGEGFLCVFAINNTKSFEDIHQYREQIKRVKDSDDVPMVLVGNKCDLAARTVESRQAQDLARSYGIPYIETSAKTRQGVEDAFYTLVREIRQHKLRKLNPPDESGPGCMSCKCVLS

[7] = biological target: T1, Rap2A (Homo sapiens, UniProt P10114); test: intrinsic guanine nucleotide exchange of Gpp(NH)p-preloaded Rap2A with mant-GTP (FRET); settings: 1 μM RGS14 RBD protein, 100 nM Rap2A, 1 μM mant-GTP, 37° C., compared to Rap2A alone, p<0.05
T1 sequence (P10114 1-183): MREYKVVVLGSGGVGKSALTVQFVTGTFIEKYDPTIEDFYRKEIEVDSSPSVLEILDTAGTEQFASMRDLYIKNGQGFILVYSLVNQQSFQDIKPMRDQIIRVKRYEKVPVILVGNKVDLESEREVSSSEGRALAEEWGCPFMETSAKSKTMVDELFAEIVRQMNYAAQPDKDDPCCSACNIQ
Method: The intrinsic guanine nucleotide exchange rate of Gpp(NH)p-preloaded Rap2A (100 nM) was monitored with mant-GTP in the absence (solid) or presence (dashed) of the RBD tandem repeat (aa 300-447) from the putative Rap2A effector rat RGS14 (1 μM). In this example, 1 mL cuvettes were loaded with 1 μM mant-GTP (in 50 mM Tris pH 7.5, 5 mM MgCl2, 1 mM EDTA at 37° C.) and allowed to equilibrate prior to the addition of 100 nM Rap2A (preloaded with Gpp(NH)p) in the presence or absence of 1 μM of the RGS14 RBD protein. The dissociation of Gpp(NH)p was then measured by excitation of the tryptophan residue. The FRET-mediated excitation of bound mant-GTP was also measured. Binding of the RGS14 RBD repeat region to activated Rap2A prevents the loss of guanine nucleotide from the G-protein, thereby effectively acting as a guanine nucleotide dissociation inhibitor (GDI). Further, the incubation of Rap2A with the RGS14 tandem RBD repeat region slowed the rate of spontaneous nucleotide exchange by about 30% (p<0.05) when compared to that of Rap2A alone. Curves were fit as single exponential functions using GraphPad Prism™ (GraphPad Software, Inc.). […]

Nc1nc2c(ncn2[C@@H]2O[C@H](COP(=O)(O)OP(=O)(O)O)[C@@H](O)[C@H]2O)c(=O)[nH]1 [GDP]
effect on Dbs-mediated RhoA activation / guanine nucleotide exchange [1]: inhibit guanine nucleotide exchange

O=C(O)C=Cc1ccc[c]([SbH]([O-])([OH])[OH])c1 [NSC#13778, 3-(3-(dihydroxy(oxido)stibino)phenyl)acrylic acid]
effect on GEF-mediated nucleotide exchange on Rac1 ([2]; NCI Diversity Set screen, 96-well kinetic format, secondary studies in 1 mL total volume): accelerated kinetics; also recorded: enhancing Tiam1-mediated Rac1 activation in a dose-dependent manner; also recorded: accelerates GEF-mediated nucleotide exchange on Rac1 in a dose-dependent manner
EC50 ([2]; acceleration of GEF-mediated nucleotide exchange on Rac1): ~4 µM
activity in complementary radiolabeled assay (Rac1) [3]: confirmed
enhancement of nucleotide exchange on Cdc42 [4]: does not enhance nucleotide exchange
enhancement of nucleotide exchange on RhoA [5]: does not enhance nucleotide exchange
enhancement of nucleotide exchange on H-Ras [6]: does not enhance nucleotide exchange

B1: RGS14 tandem RBD repeat region: RBD tandem repeat (aa 300-447) from the putative Rap2A effector rat RGS14 (protein, UniProt O08773 300-447, looked up, fragment)
chain: KYCCVYLPDGTASLALARPGLTIRDMLAGICEKRGLSLPDIKVYLVGKEQKALVLDQDCTVLADQEVRLENRITFQLELVGLERVVRISAKPTKRLQEALQPILAKHGLSLDQVVLHRPGEKQLVDLENLVSSVASQTLVLDTLPDAK
slowing of the rate of spontaneous nucleotide exchange of Rap2A [7]: about 30%
